# Legend:
# ARPE-19 cells = experiment: Chemosensitivity (MTT cell viability) assay, noncancerous ARPE-19; format: cell-based, human; conditions: ARPE-19 noncancerous, 96 h, n = 9
# Description: The cytotoxicity of the compounds against the cancer cell lines was also compared to the noncancerous retinal epithelial cell line, ARPE-19, to determine the possibility of cancer cell selectivity. […]
# All cytotoxicity assays were conducted using human cell lines: breast adenocarcinomas (MDA-MB-231 and MCF-7), pancreatic carcinoma (MIA PaCa-2) and non-cancerous epithelial retinal (ARPE-19) cell lines. All cell lines were routinely maintained as monolayer cultures in appropriate complete media:
# MCF-7, MIA PaCa-2 and ARPE-19 in high glucose DMEM and MDA-MB-231 in RPMI-1640, and both media were supplemented with 10% FBS, 1 mM sodium pyruvate, 2 mM L-glutamine, and 1% pen-strep. All cells were initially grown in T-25 or T-75 flasks at 37 °C and 5% CO2. Before chemosensitivity studies, cell monolayers were passaged using trypsin-EDTA (0.05%) and diluted to a concentration of 1 x 10^4 cells/mL (or 4 x 10^4 cells mL for 24 h assays). All assays were conducted in 96-well plates, in which 100 µL of the cell suspension was added for 24 h at 37 °C and 5% CO2, and then 100 µL of compound/medium dilutions for a further 96 h (or 24 h). All compound stocks were made using sterile DMSO at 100 mM before dilution, and a maximum of 0.1% DMSO was used in each assay. After incubation, 3-(4,5-dimethylthiazol-2-yl)-2,5-diphenyltetrazolium bromide (20 µL, 5 mg/mL in PBS) was added to each well and incubated for 3 h at 37°C and 5% CO2. All solutions were then aspirated, DMSO (150 µL) added to each well, gently mixed, and the absorbance was measured at 540 nm using a ClarioStar spectrophotometer microplate reader. Results were plotted on a logarithmic scale, and the half maximal inhibitory concentration (IC50) was determined from a triplicate of triplicate repeats (n = 9) and reported as an IC 50 ± Standard Deviation (SD).
# MDA-MB-231 cells = experiment: 3D spheroid live/dead viability assay; format: cell-based, human; conditions: MDA-MB-231 spheroids, 100 μM, 48 h
# Description: 3D cell cultures of cancer are good models for preclinical cancer research, as they are more representative of tumor microenvironments. MDA-MB-231 cells were maintained using the standard cell culture methods before seeding into round-bottom ultralow-attachment plates for 3D culture. Once the cells were seeded, the plate was centrifuged to assist with cell clumping at the bottom of the well and facilitate uniform spheroid formation. After 24 h, medium containing collagen I was added, and the cells were allowed to aggregate further. After sufficient growth of the spheroids (Day 4 – Figure ), the cells were treated with 100 μM of 1 for 48 h. The higher concentration was chosen, as it has been reported that spheroids require higher drug doses than two-dimensional (2D) experiments.
# Live and dead cells were then visualized using the LIVE/DEAD Viability/Cytotoxicity Kit by Invitrogen. […]
# An equal volume of Annexin V and 7-AAD solution was added to 100 μL of the cell suspension, followed by a 20 min incubation at room temperature. The cells were then analyzed using the Muse Cell Analyzer (Merck Millipore). […]
# A mixture of 50 μL of cell suspension and 5 μL of Caspase 3/7 antibody (diluted 1:8 in PBS) was prepared and incubated at room temperature for 30 minutes. […] Apoptotic cells were analyzed using the Muse Cell Analyzer. […]
substance,measurement,setting,value
[Cp*Ir(C16H14NO)(PTA)](PF6) [Compound 1],IC50,ARPE-19 cells,10.4 ± 0.7 µM
same,Cytotoxicity in 3D spheroids (live/dead staining),MDA-MB-231 cells,significant cytotoxicity

# From article PMC12406195, “Understanding the Modes of Action of β‑Ketoiminato Iridium(III) Complexes in Cancer Cells” (Inorganic Chemistry, 2025)
